Here are results for 39 compounds from the supplement of paper PMC11821682.

Assay [1] has as its system Danio rerio embryo. Kind of assay: BMC10 any morphological effect or mortality at 120 hpf; higher = less toxic. Here is the method: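 ZBEscreen: dechorionated Tropical 5D zebrafish embryos were exposed from 4 hpf in 96-well plates (1% DMSO, 28 °C). All compounds were first tested at 100 µM; hits were retested at 0.005-100 µM. Morphology and mortality were scored at 120 hpf and fitted as BMC10 (3-parameter log-logistic, extra risk). The embryonic photomotor response at 24 hpf and the larval photomotor response at 120 hpf are given as lowest effect levels (K-S test, p<0.01). NA = not significant up to 100 µM; NT = not tested.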

Assay [2] relates to HL-60. Kind of assay: Cell Health Index (toxicity pseudo-probability over dose series) (index 0-1); higher = more cytotoxic / cell stress.

A value given as a limit tells only on which side of the number the result lay.
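For Cell Health Index (toxicity pseudo-probability over dose series) in this document: HL-60 cells exposed 4 h at 37 °C to ten threefold dilutions spanning 5 nM to 100 µM, multiparametric flow cytometry features scored by machine-learning classification.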

Take `COC(=O)N[C@H](C(=O)N1CCC[C@H]1c1ncc(-c2ccc(-c3ccc(-c4cnc([C@@H]5CCCN5C(=O)[C@@H](NC(=O)OC)C(C)C)[nH]4)cc3)cc2)[nH]1)C(C)C` [Daclatasvir]: the “BMC10 any morphological effect or mortality” value in assay [1] was > 100 µM. Also, in assay [2], the “Cell Health Index” value came out at 0.208.

Turning to `O=c1c(-c2ccc(O)cc2)coc2cc(O[C@@H]3O[C@H](CO)[C@@H](O)[C@H](O)[C@H]3O)ccc12` [Daidzin], the “BMC10 any morphological effect or mortality” value in assay [1] was > 100 µM. Besides, the “Cell Health Index” value in assay [2] amounted to 0.169.

Consider `CC(C)(C)OC(=O)N[C@H]1CCCCC/C=C\[C@@H]2C[C@@]2(C(=O)NS(=O)(=O)C2CC2)NC(=O)[C@@H]2C[C@@H](OC(=O)N3Cc4cccc(F)c4C3)CN2C1=O` [Danoprevir], for which the “BMC10 any morphological effect or mortality” value in assay [1] was > 100 µM. Also, in assay [2], the “Cell Health Index” value is 0.26.

On to `COc1cc2cc(Oc3ccc4ccc(=O)oc4c3)c(=O)oc2cc1O` [Daphnoretin], for which, in assay [1], the “BMC10 any morphological effect or mortality” value is > 100 µM. Besides, the “Cell Health Index” value in assay [2] is 0.178.

As for `Cc1cc(C)c(Nc2ccnc(Nc3ccc(C#N)cc3)n2)c(C)c1` [Dapivirine], the “BMC10 any morphological effect or mortality” value in assay [1] is > 100 µM. Further, the “Cell Health Index” value in assay [2] amounted to 0.836.

As to `COc1c(-c2ccc3cc(NS(C)(=O)=O)ccc3c2)cc(-n2ccc(=O)[nH]c2=O)cc1C(C)(C)C` [Dasabuvir], in assay [1], the “BMC10 any morphological effect or mortality” value is > 100 µM. In addition, the “Cell Health Index” value in assay [2] is 0.608.

Consider `Cc1c(O)c(=O)ccn1C` [Deferiprone], for which, in assay [1], the “BMC10 any morphological effect or mortality” value was > 100 µM. Moreover, the “Cell Health Index” value in assay [2] is 0.256.

As to `CC(=O)N(O)CCCCCNC(=O)CCC(=O)N(O)CCCCCNC(=O)CCC(=O)N(O)CCCCCN.CS(=O)(=O)O` [Deferoxamine], in assay [1], the “BMC10 any morphological effect or mortality” value was > 100 µM. Further, the “Cell Health Index” value in assay [2] was 0.23.

Turning to `CC(C)Nc1cccnc1N1CCN(C(=O)c2cc3cc(NS(C)(=O)=O)ccc3[nH]2)CC1.CS(=O)(=O)O` [Delavirdine], the “BMC10 any morphological effect or mortality” value in assay [1] was > 100 µM. Besides, the “Cell Health Index” value in assay [2] was 0.324.

Consider `COC(=O)N[C@H](C(=O)NNC[C@H](O)[C@H](Cc1ccccc1)NC(=O)[C@@H](NC(=O)OC)C(C)(C)C)C(C)(C)C` [Des(benzylpyridyl) Atazanavir], for which the “BMC10 any morphological effect or mortality” value in assay [1] is > 100 µM. In addition, in assay [2], the “Cell Health Index” value stood at 0.207.

For the compound `O=c1[nH]cnc2c1ncn2[C@H]1CC[C@@H](CO)O1` [Didanosine], the “BMC10 any morphological effect or mortality” value in assay [1] is > 100 µM. In addition, in assay [2], the “Cell Health Index” value is 0.159.

`CCCCCCCCCCCCCCCCCCCCCCO` [Docosanol]: the “BMC10 any morphological effect or mortality” value in assay [1] is > 100 µM. In assay [2], the “Cell Health Index” value turned out to be 0.266.

With `Cn1c(Cn2ccc(C(F)(F)F)c(Oc3cc(Cl)cc(C#N)c3)c2=O)n[nH]c1=O` [Doravirine], the “BMC10 any morphological effect or mortality” value in assay [1] is > 100 µM. In addition, in assay [2], the “Cell Health Index” value is 0.198.

With `CCO.C[C@H]1c2cccc(O)c2C(=O)C2=C(O)[C@]3(O)C(=O)C(C(N)=O)=C(O)[C@@H](N(C)C)C3[C@@H](O)C21.C[C@H]1c2cccc(O)c2C(=O)C2=C(O)[C@]3(O)C(=O)C(C(N)=O)=C(O)[C@@H](N(C)C)C3[C@@H](O)C21.Cl.Cl.O` (stereo partly drawn) [Doxycycline], the “BMC10 any morphological effect or mortality” value in assay [1] is > 100 µM. The “Cell Health Index” value in assay [2] stood at 0.591.

Consider `Cl.OC[C@H]1NC[C@H](O)[C@@H](O)[C@@H]1O` [Duvoglustat], for which, in assay [1], the “BMC10 any morphological effect or mortality” value was > 100 µM. Besides, the “Cell Health Index” value in assay [2] worked out at 0.147.

With `COc1cc2c(cc1OC)CN(CCc1ccc(NC(=O)c3cccc4c(=O)c5cccc(OC)c5[nH]c34)cc1)CC2` [Elacridar], the “BMC10 any morphological effect or mortality” value in assay [1] was > 100 µM. Further, the “Cell Health Index” value in assay [2] stood at 0.592.

With `COc1cc2c(cc1Cc1cccc(Cl)c1F)c(=O)c(C(=O)O)cn2[C@H](CO)C(C)C` [Elvitegravir], the “BMC10 any morphological effect or mortality” value in assay [1] is > 100 µM. For the same compound, in assay [2], the “Cell Health Index” value came to 0.339.

On to `Nc1nc(=O)n([C@@H]2CS(=O)[C@H](CO)O2)cc1F` (stereo partly drawn) [Emtricitabine S-oxide], for which the “BMC10 any morphological effect or mortality” value in assay [1] is > 100 µM. The “Cell Health Index” value in assay [2] was found to be 0.188.

As to `Nc1nc(=O)n([C@@H]2CS[C@H](CO)O2)cc1F` [Emtricitabine], the “BMC10 any morphological effect or mortality” value in assay [1] is > 100 µM. In addition, in assay [2], the “Cell Health Index” value stood at 0.158.

Take `C=C1[C@H](CO)[C@@H](O)C[C@@H]1n1cnc2c(=O)nc(N)[nH]c21.O` [Entecavir]: in assay [1], the “BMC10 any morphological effect or mortality” value was > 100 µM. For the same compound, in assay [2], the “Cell Health Index” value amounted to 0.178.

As to `CC(O)(P(=O)([O-])O)P(=O)([O-])O.[Na+].[Na+]` [Etidronic acid], the “BMC10 any morphological effect or mortality” value in assay [1] is > 100 µM. Besides, in assay [2], the “Cell Health Index” value worked out at 0.198.

As for `CC(=O)OCC(CCn1cnc2cnc(N)nc21)COC(C)=O` [Famciclovir], the “BMC10 any morphological effect or mortality” value in assay [1] is > 100 µM. Also, the “Cell Health Index” value in assay [2] worked out at 0.254.

With `NC(=O)c1nc(F)c[nH]c1=O` [Favipiravir], the “BMC10 any morphological effect or mortality” value in assay [1] is > 100 µM. For the same compound, the “Cell Health Index” value in assay [2] came to 0.248.

As to `O=c1[nH]c(=O)n([C@@H]2O[C@H](CO)[C@@H](O)[C@@H]2F)cc1I` [Fialuridine], the “BMC10 any morphological effect or mortality” value in assay [1] was > 100 µM. Also, in assay [2], the “Cell Health Index” value is 0.209.

As to `CC(C)CN(C[C@@H](OP(=O)([O-])[O-])[C@H](Cc1ccccc1)NC(=O)O[C@H]1CCOC1)S(=O)(=O)c1ccc(N)cc1.[Ca+2]` [Fosamprenavir], the “BMC10 any morphological effect or mortality” value in assay [1] is > 100 µM. The “Cell Health Index” value in assay [2] was 0.242.

For `O=C([O-])P(=O)([O-])[O-].[Na+].[Na+].[Na+]` [Foscarnet], the “BMC10 any morphological effect or mortality” value in assay [1] is > 100 µM. The “Cell Health Index” value in assay [2] was found to be 0.13.

`CO[C@@H]1[C@H](OC(=O)/C=C/C=C/C=C/C=C/C(=O)O)CC[C@]2(CO2)[C@H]1[C@@]1(C)O[C@@H]1CC=C(C)C` [Fumagillin]: in assay [1], the “BMC10 any morphological effect or mortality” value is > 100 µM. Further, in assay [2], the “Cell Health Index” value worked out at 0.187.

As for `CC(C)OC(=O)[C@H](C)N[P@](=O)(CO[C@H](C)Cn1cnc2c(N)ncnc21)Oc1ccccc1` [GS-7340], the “BMC10 any morphological effect or mortality” value in assay [1] was > 100 µM. Also, in assay [2], the “Cell Health Index” value was determined as 0.202.

Turning to `Nc1nc(=O)c2ncn(COC(CO)CO)c2[nH]1` [Ganciclovir], in assay [1], the “BMC10 any morphological effect or mortality” value was > 100 µM. Also, the “Cell Health Index” value in assay [2] was 0.179.

Take `CCNCc1nc2c(N)nc3ccccc3c2n1CC(C)(C)O` [Gardiquimod]: the “BMC10 any morphological effect or mortality” value in assay [1] was > 100 µM. Further, the “Cell Health Index” value in assay [2] is 0.172.

For the compound `Cl.Nc1ccn([C@@H]2O[C@H](CO)[C@@H](O)C2(F)F)c(=O)n1` [Gemcitabine], the “BMC10 any morphological effect or mortality” value in assay [1] was > 100 µM. The “Cell Health Index” value in assay [2] was determined as 0.172.

As to `COC(=O)C1=CO[C@@H](O[C@@H]2O[C@H](CO)[C@@H](O)[C@H](O)[C@H]2O)[C@@H]2C(CO)=CC[C@H]12` [Geniposide], the “BMC10 any morphological effect or mortality” value in assay [1] was > 100 µM. In addition, in assay [2], the “Cell Health Index” value turned out to be 0.251.

As to `C=C[C@@H]1C2=CCOC(=O)C2=CO[C@H]1O[C@@H]1O[C@H](CO)[C@@H](O)[C@H](O)[C@H]1O` [Gentiopicrin], in assay [1], the “BMC10 any morphological effect or mortality” value was > 100 µM. Moreover, the “Cell Health Index” value in assay [2] was determined as 0.225.

Consider `O=C1O[C@@H]2[C@H]3OC(=O)c4cc(O)c(O)c(O)c4-c4c(cc(O)c(O)c4O)C(=O)OC[C@@H]2OC(OC(=O)c2cc(O)c(O)c(O)c2)[C@H]3OC(=O)c2cc(O)c(O)c3c2C2C1=CC(=O)C(O)(O3)C2(O)O` (stereo partly drawn) [Geraniin], for which the “BMC10 any morphological effect or mortality” value in assay [1] was > 100 µM. In addition, the “Cell Health Index” value in assay [2] was determined as 0.824.

Take `CC(C)=CCC[C@](C)(O[C@@H]1O[C@H](CO[C@@H]2O[C@H](CO)[C@@H](O)[C@H](O)[C@H]2O)[C@@H](O)[C@H](O)[C@H]1O)[C@H]1CC[C@]2(C)[C@@H]1[C@H](O)C[C@@H]1[C@@]3(C)CC[C@H](O[C@@H]4O[C@H](CO)[C@@H](O)[C@H](O)[C@H]4O[C@@H]4O[C@H](CO)[C@@H](O)[C@H](O)[C@H]4O)C(C)(C)[C@@H]3CC[C@]12C` [Ginsenoside Rb1]: the “BMC10 any morphological effect or mortality” value in assay [1] is > 100 µM. In assay [2], the “Cell Health Index” value came out at 0.145.

On to `O[C@H]1[C@@]2([H])[C@](CC[C@]2([H])[C@@](CC/C=C(C)/C)(C)O[C@@H]3O[C@H](CO[C@H]4[C@H](O)[C@@H](O)[C@@H](O)CO4)[C@@H](O)[C@H](O)[C@H]3O)(C)[C@]5(C)CC[C@]6([H])[C@@](CC[C@H](O[C@]7([H])O[C@H](CO)[C@@H](O)[C@H](O)[C@H]7O[C@@]8([H])[C@H](O)[C@@H](O)[C@H](O)[C@@H](CO)O8)C6(C)C)(C)[C@@]5([H])C1` [Ginsenoside Rb2], for which the “BMC10 any morphological effect or mortality” value in assay [1] was > 100 µM. Besides, in assay [2], the “Cell Health Index” value turned out to be 0.173.

Consider `CC1(C)CC[C@]2(C(=O)O[C@@H]3O[C@H](CO)[C@@H](O)[C@H](O)[C@H]3O)CC[C@]3(C)C(=CC[C@@H]4[C@@]5(C)CC[C@H](O[C@@H]6O[C@H](C(=O)O)[C@@H](O)[C@H](O)[C@H]6O[C@@H]6O[C@H](CO)[C@@H](O)[C@H](O)[C@H]6O)C(C)(C)[C@@H]5CC[C@]43C)[C@@H]2C1` [Ginsenoside Ro], for which, in assay [1], the “BMC10 any morphological effect or mortality” value was > 100 µM. Moreover, in assay [2], the “Cell Health Index” value came to 0.229.

With `CC(C)(C)[C@@H]1NC(=O)O[C@@H]2CCC[C@H]2OC/C=C/C(F)(F)c2nc3ccccc3nc2O[C@@H]2C[C@@H](C(=O)N[C@]3(C(=O)NS(=O)(=O)C4(C)CC4)C[C@H]3C(F)F)N(C2)C1=O` [Glecaprevir], in assay [1], the “BMC10 any morphological effect or mortality” value was > 100 µM. In addition, the “Cell Health Index” value in assay [2] was found to be 0.369.

With `COc1cc2c(=O)c(-c3ccc(O)cc3)coc2cc1O[C@@H]1O[C@H](CO)[C@@H](O)[C@H](O)[C@H]1O` [Glycitin], the “BMC10 any morphological effect or mortality” value in assay [1] is > 100 µM. Also, in assay [2], the “Cell Health Index” value turned out to be 0.158.
